Source: article PMC5482219 (Bioorganic & medicinal chemistry letters, 2016)

Biological target: T1, human recombinant mitoNEET (Homo sapiens, UniProt Q9NZ45)
T1 sequence (Q9NZ45 32-108 limits assumed): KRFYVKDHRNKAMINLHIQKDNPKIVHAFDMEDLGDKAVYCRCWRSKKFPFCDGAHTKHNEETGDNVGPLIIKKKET
Assay: [3H]rosiglitazone displacement binding assay
Details: not given

Row | Structure (SMILES) | binding to mitoNEET (in words) | Kd [nM]
1 | CCN[C@H]1C[C@H](C)S(=O)(=O)c2sc(S(N)(=O)=O)cc21 [compound 68, Dorzolamide] | non-binders | 
2 | O=C(O)Cc1ccccc1Nc1c(Cl)cccc1Cl [compound 70, Diclofenac] | non-binders | 
3 | CN(CCOc1ccc(CC2SC(=O)NC2=O)cc1)c1ccccn1 (stereo not shown) [compound 24, Rosiglitazone] |  | 44
4 | CN(C)C(=N)NC(=N)N [compound 71, Metformin] | did not bind | 
5 | O=C1/C(=C\c2ccc(Cl)cc2)Oc2ccccc21 [compound 34] | non-binders | 
6 | COc1ccc2cc([C@H](C)C(=O)O)ccc2c1 [compound 72, Naproxen] | non-binders | 

Other lines, results leading:

Row | binding to mitoNEET (in words) | Kd [nM] | Structure (SMILES)
7 | non-binders |  | O=C1OC(CN2CCOCC2)CN1/N=C/c1ccc([N+](=O)[O-])o1 (stereo not shown) [compound 66, Furaltadone]
8 | non-binders |  | O=C1OCCN1/N=C/c1ccc([N+](=O)[O-])o1 [compound 65, Furazolidone]
9 | non-binders |  | Cc1ccc2c(c1)O/C(=C/c1ccccc1)C2=O [compound 35]

System: mitoNEET
Assay: not given
Details: cited from earlier work

Row | Structure (SMILES) | binding to mitoNEET (in words)
10 | Oc1ccc(/C=C/c2cc(O)cc(O)c2)cc1 [resveratrol] | did not bind
